Entries after “also recorded” stand apart in the source; their conditions may differ.
Legend:
[1] = test system: OVA evoked asthma in sensitized guinea pigs; test: Airway resistance in OVA asthma attack after oral administration in sensitized guinea pigs; type: in vivo
Protocol: Sensitized animals were divided into Saline (control), S-Bambuterol and R-bambuterol groups. R or S bambuterol were administered by both inhalation by oral ([…]). Airway resistance (Raw) and dynamic pulmonary compliance (Cdyn) were measured at resting or during astham challenge by OVA. Animal preparation and experimental methods were similar as described previously.

[2] = test system: OVA evoked asthma in sensitized guinea pigs; test: Airway resistance and dynamic pulmonary compliance after inhalation in OVA sensitized guinea pigs; type: in vivo; settings: for change of Raw and Cdyn at resting state after inhalation: before OVA challenge; for protection against asthma attack by antigen (OVA) challenge: pretreatment by inhalation about three minutes before OVA challenge
Protocol: Sensitization of animals: Ovalbumin (10 μg/ml) was injected into guinea-pigs subcutaneously and coincidentally with an intraperitoneal injection of B. pertussis vaccine. Identical injection of ovalbumin and adjuvant were made day 15 and 21 days later. On day 28th the animals were examined and used for studies.
Test Methods: The sensitized guinea pigs wer anaethetized. A cannula was inserted into the trachea. A plueral cannula was inserted into pleural space through the chest wall. Airway resistance (Raw) and dynamic pulmonary compliance (Cdyn) were measured by using the signals of intraplueral pressure, airflow and tidal volume.
The animals were restreined in closed chamber and nebulized R-bambuterol or S-bambuterol were inhaled at the dose of 126 μg/kg. After three minutes conditioning, the animals were then challenged with nebulized OVA to evoke asthma. Airway resistance (Raw) and dynamic pulmonary compliance (Cdyn) were measured before and after evoking asthma.

Which results are given for `CN(C)C(=O)Oc1cc(OC(=O)N(C)C)cc([C@@H](O)CNC(C)(C)C)c1` [R-bambuterol]?
change in Raw / asthmatic response during the asthmatic attack by OVA ([1]; oral): little changes in Raw; Changes in Airway resistance (Raw) at 4th min after OVA challenge ([1]; pretreated oral 4 m/kg, n=8): 0.14 ± 0.13; Changes in Airway resistance (Raw) at 5th min after OVA challenge ([1]; pretreated oral 4 m/kg, n=8): 0.11 ± 0.08; change of Raw and Cdyn at resting state after inhalation [2]: reduced airway resistance and enhanced pulmonary dynamic compliance; change of Raw and Cdyn at resting state after inhalation ([2]; listed as R-Bambuterol): no significant changes both in Raw and Cdyn; protection against asthma attack by antigen (OVA) challenge [2]: significant anti-asthma effects; also recorded: fully protection against the asthma attack; protection against asthma attack by antigen (OVA) challenge ([2]; listed as R-BM): full protection
